Measured values from patent US7205326B2, “Aniline derivatives, their manufacture and use as pharmaceutical agents” (Hoffmann-La Roche Inc., priority 2003, dated 2007).

What was measured:
[1] = tested on: HCT116 cells; test: HCT116 cell proliferation MTT assay; format: cell-based; conditions: HCT-116; HCT116 human colon carcinoma cells, MTT assay after 5 days (120 h) incubation, compound 3 uM to 0.15 nM
Procedure: HCT116 cells (human colon carcinoma cell line) were cultivated in RPMI 1640, 2.5% FCS, 2 mM Glutamine, 100 u/ml Penicillin, 100 ug/ml Streptomycin. For the assay the cells were seeded in 384 well plates, 1000 cells per well, in the same medium
The next day compounds (dissolved 10 mM in DMSO) were added in various concentrations ranging from 3 uM to 0.15 nM. After 5 days the MTT assay was done mainly according to the instructions of the manufacturer (Cell proliferation kit I, MTT, from Roche Molecular Biochemicals). In brief: MTT labeling reagent was added to a final concentration of 0.5 mg/ml, added and incubated for 4 hrs at 37° C., 5% CO2. During this incubation time purple formazan crystals are formed. After addition of the solubilization solution (20% SDS in 0.02 M HCl) the plates were incubated overnight at 37° C., 5% CO2. After careful mixing plates were measured in Victor 2 (scanning multiwell spectrophotometer, Wallac) at 550 nm.
A decrease in number of living cells results in a decrease in the total metabolic activity in the sample. The decrease directly correlates to the amount of purple color resulting from the solubilization of the purple formazan crystals.
Materials: • HCT116 1000 cells in 60 ul per well of 384 well plate (Greiner) • Medium: RPMI 1640, 2.5% FCS, glutamine, pen/strep. • Incubate 1 day at 37° C.
Induction: • Dilution of compound in DMSO: 3 ul 10 mM+27 ul DMSO, dilute 1:3 • Add 2 ul of compound dilution row to 95 ul of medium • Add 10 ul of compound dilution to 60 ul medium in test plate results in 0.3% DMSO per well • Incubate 120 h (5 days) at 37° C., 5% CO2
Analysis: • Add 7 ul MTT ([…]), incubate 4 h at 37° C. • Add 30 ul lysis buffer (20% SDS, 0.04N HCl) per well • Incubate overnight at 37° C.
Measurement: • Victor 2 (scanning multiwell spectrophotometer, Wallac), at 550 nm • Determination of IC50 was done using XL-fit.

Compound: CN(Cc1coc(C=Cc2ccc(C(F)(F)F)cc2)n1)c1ccc(OCCCn2ccnn2)cc1 [Example 10, Methyl-[4-(3-[1,2,3]triazol-1-yl-propoxy)-phenyl]-{2-[2-(4-trifluoromethyl-phenyl)-vinyl]-oxazol-4-ylmethyl}-amine]
- IC50 [1]: > 40 nM
- melting point: 137 to 138 °C

Compound: O=C(Nc1ccc(CCCCn2ccnn2)cc1)c1coc(C=Cc2ccc(C(F)(F)F)cc2)n1 [Example 11, 2-[2-(4-Trifluoromethyl-phenyl)-vinyl]-oxazole-4-carboxylic acid [4-(4-[1,2,3]triazol-1-yl-butyl)-phenyl]-amide]
- IC50 [1]: 20 to 40 nM
- melting point: 183 to 185 °C

Compound: CN(C(=O)c1coc(C=Cc2ccc(C(F)(F)F)cc2)n1)c1ccc(CCCCn2ccnn2)cc1 [Example 12, 2-[2-(4-Trifluoromethyl-phenyl)-vinyl]-oxazole-4-carboxylic acid methyl-[4-(4-[1,2,3]triazol-1-yl-butyl)-phenyl]-amide]
- IC50 [1]: 20 to 40 nM
- melting point: 127 to 129 °C

Compound: Clc1ccc(C=Cc2nc(CNc3ccc(CCCCn4ccnn4)cc3)co2)cc1Cl [Example 25, {2-[2-(3,4-Dichloro-phenyl)-vinyl]-oxazol-4-ylmethyl}-[4-(4-[1,2,3]triazol-1-yl-butyl)-phenyl]-amine]
- IC50 [1]: < 20 nM
- melting point: 76.8 to 78.8 °C

Compound: Fc1ccc(C=Cc2nc(CNc3ccc(CCCCn4ccnn4)cc3)co2)c(C(F)(F)F)c1 [Example 27, {2-[2-(4-Fluoro-2-trifluoromethyl-phenyl)-vinyl]-oxazol-4-ylmethyl}-[4-(4-[1,2,3]triazol-1-yl-butyl)-phenyl]-amine]
- IC50 [1]: > 40 nM
- melting point: 109 to 111 °C

Compound: FC(F)(F)Oc1cccc(C=Cc2nc(CNc3ccc(CCCCn4ccnn4)cc3)co2)c1 [Example 28, [4-(4-[1,2,3]Triazol-1-yl-butyl)-phenyl]-{2-[2-(3-trifluoromethoxy-phenyl)-vinyl]-oxazol-4-ylmethyl}-amine]
- IC50 [1]: > 40 nM
- melting point: 91 to 93 °C

Compound: [O-][S+](c1ccc(/C=C/c2nc(CNc3ccc(CCCCn4ccnn4)cc3)co2)cc1)C(F)(F)F (centres unmarked) [Example 33, [4-(4-[1,2,3]Triazol-1-yl-butyl)phenyl]-{2-[(E)-2-(-4-trifluoromethanesulfinyl-phenyl)-vinyl]-oxazol-4-ylmethyl}-amine]
- IC50 [1]: > 40 nM
- melting point: 121 to 124 °C
